Source: US8735398B2 (Bristol-Myers Squibb Company, priority 2009, dated 2014)
Where two headings read alike, the source gives them in different places.

System: HCV 1b genotype
Assay: HCV replicon assay (HCV-neo replicon cells, wild-type)
Assay type: cell-based, Hepatitis C virus
Details: Hepatitis C virus, HCV 1b genotype replicon, read-out: EC50 Range against HCV 1b
Method in brief: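 Inhibition was tested in replicon-bearing cells, both wild-type HCV-neo and lines with NS5A resistance substitutions, using the O'Boyle et al. 2005 replicon method or luciferase-reporter formats.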

Structure (SMILES) | EC50 (class symbol) [nM] | EC50 (class symbols) [nM]
O=C(Nc1ccc(-c2cnc(-c3ccc(NC(=O)[C@@H]4CCCN4C(=O)c4ccncc4)cc3)o2)cc1)[C@@H]1CCCN1C(=O)c1ccncc1 [JG-10, (2S,2′S)-N,N′-(1,3-oxazole-2,5-diyldi-4,1-phenylene)bis(1-isonicotinoyl-2-pyrrolidinecarboxamide)] | 100 to 999 | 
O=C(Nc1ccc(-c2ccc(-c3ccc(NC(=O)[C@@H]4CCCN4C(=O)OCc4ccccc4)cc3)s2)cc1)[C@@H]1CCCN1C(=O)OCc1ccccc1 [OL-23, (2S,2′S)-2,2′-[2,5-thienediylbis(4,1-phenyleneiminocarbonyl)]bis-1-pyrrolidinecarboxylic acid, bis(phenylmethyl) ester] | 4.57 to 99 | 
O=C(Nc1ccc(-c2cnc(-c3ccc(NC(=O)[C@@H]4CCCN4C(=O)C(O)c4cccnc4)cc3)o2)cc1)[C@@H]1CCCN1C(=O)C(O)c1cccnc1 (stereo partly drawn) [JR-7, (2S,2′S)-N,N′-(2,5-oxazolediyldi-4,1-phenylene)bis[1-(hydroxy-3-pyridinylacetyl)-2-pyrrolidinecarboxamide]] |  | 4.57 to 99
